Article PMC5218480 (PLoS ONE, 2017)

System: MV-4-11 cells
Test: Gene expression microarray analysis (Affymetrix PrimeView) and GSEA
Format: cell-based, human
Set-up: RFU PODN (11730768_x_at) / Fold change /veh PODN (11730768_x_at) / RFU LINC00158 (11744669_a_at) / Fold change /veh LINC00158 (11744669_a_at) / RFU DUSP10 (11751237_a_at) / Fold change /veh DUSP10 (11751237_a_at) / RFU ID3 (11757404_x_at) / Fold change /veh ID3 (11757404_x_at) / RFU PLEKHG5 (11737974_s_at) / Fold change /veh PLEKHG5 (11737974_s_at) / RFU LRRC4B (11730491_at) / Fold change /veh LRRC4B (11730491_at) / RFU GIMAP4 (11747438_a_at) / Fold change /veh GIMAP4 (11747438_a_at) / RFU KRT8 (11758183_x_at) / Fold change /veh KRT8 (11758183_x_at) / RFU CNN1 (11734310_a_at) / Fold change /veh CNN1 (11734310_a_at) / RFU VPS37D (11726825_at) / Fold change /veh VPS37D (11726825_at) / RFU C10orf10 (11716522_x_at) / Fold change /veh C10orf10 (11716522_x_at) / RFU KIR2DL2 /// KIR2DL4 /// KIR2DL5A /// KIR2DL5B /// KIR2DS1 /// KIR2DS2 /// KIR2DS3 /// KIR2DS4 /// KIR3DL3 /// KIR3DL3 /// KIR3DS1 (11738374_at) / Fold change /veh KIR2DL2 /// KIR2DL4 /// KIR2DL5A /// KIR2DL5B /// KIR2DS1 /// KIR2DS2 /// KIR2DS3 /// KIR2DS4 /// KIR3DL3 /// KIR3DL3 /// KIR3DS1 (11738374_at) / RFU C1QL1 (11718748_at) / Fold change /veh C1QL1 (11718748_at) / RFU TMPRSS4 (11747572_a_at) / Fold change /veh TMPRSS4 (11747572_a_at) / RFU HAMP (11756126_x_at) / Fold change /veh HAMP (11756126_x_at) / RFU RNFT2 (11725882_a_at) / Fold change /veh RNFT2 (11725882_a_at) / RFU NR4A2 (11747474_a_at) / Fold change /veh NR4A2 (11747474_a_at) / RFU ABCC12 (11746883_a_at) / Fold change /veh ABCC12 (11746883_a_at) / RFU TMEM136 (11760407_x_at) / Fold change /veh TMEM136 (11760407_x_at) / RFU CLDN22 /// WWC2 (11732394_at) / Fold change /veh CLDN22 /// WWC2 (11732394_at) / RFU HLA-DPB1 (11760878_x_at) / Fold change /veh HLA-DPB1 (11760878_x_at) / RFU SPINT1 (11716480_a_at) / Fold change /veh SPINT1 (11716480_a_at) / RFU GAP43 (11754022_s_at) / Fold change /veh GAP43 (11754022_s_at) / RFU A4GNT (11735810_at) / Fold change /veh A4GNT (11735810_at) / RFU PRB3 (11715151_x_at) / Fold change /veh PRB3 (11715151_x_at) / RFU TUBB4B (11761932_at) / Fold change /veh TUBB4B (11761932_at) / RFU CAPN14 (11732068_a_at) / Fold change /veh CAPN14 (11732068_a_at) / RFU TMCC2 (11721928_a_at) / Fold change /veh TMCC2 (11721928_a_at) / RFU IRGQ (11745062_a_at) / Fold change /veh IRGQ (11745062_a_at) / RFU FAM174B (11720279_a_at) / Fold change /veh FAM174B (11720279_a_at) / RFU TMPRSS4 (11748680_a_at) / Fold change /veh TMPRSS4 (11748680_a_at) / RFU FAM212B (11763350_a_at) / Fold change /veh FAM212B (11763350_a_at) / RFU PLEKHG5 (11743358_a_at) / Fold change /veh PLEKHG5 (11743358_a_at) / RFU ZSCAN30 (11745921_a_at) / Fold change /veh ZSCAN30 (11745921_a_at) / RFU CMKLR1 (11741424_a_at) / Fold change /veh CMKLR1 (11741424_a_at) / RFU LOC101060620 /// MAPK8IP1 (11723275_at) / Fold change /veh LOC101060620 /// MAPK8IP1 (11723275_at) / RFU SPTSSB (11747773_x_at) / Fold change /veh SPTSSB (11747773_x_at) / RFU PRSS12 (11739890_at) / Fold change /veh PRSS12 (11739890_at) / RFU BIN1 (11741810_x_at) / Fold change /veh BIN1 (11741810_x_at) / RFU WNT11 (11732464_a_at) / Fold change /veh WNT11 (11732464_a_at) / RFU C10orf10 (11716521_a_at) / Fold change /veh C10orf10 (11716521_a_at) / RFU C5orf56 (11738089_at) / Fold change /veh C5orf56 (11738089_at) / RFU CYB561 (11721691_x_at) / Fold change /veh CYB561 (11721691_x_at) / RFU ANKRD19P (11752326_a_at) / Fold change /veh ANKRD19P (11752326_a_at) / RFU OR2T12 /// OR2T33 /// OR2T8 (11738714_s_at) / Fold change /veh OR2T12 /// OR2T33 /// OR2T8 (11738714_s_at) / RFU VCAN (11748164_a_at) / Fold change /veh VCAN (11748164_a_at) / RFU JSRP1 (11732532_at) / Fold change /veh JSRP1 (11732532_at) / RFU KRTAP10-11 (11738290_x_at) / Fold change /veh KRTAP10-11 (11738290_x_at) / RFU MYO3A (11730013_a_at) / Fold change /veh MYO3A (11730013_a_at) / RFU EBF3 (11725865_a_at) / Fold change /veh EBF3 (11725865_a_at) / RFU CAMK2N1 (11719241_x_at) / Fold change /veh CAMK2N1 (11719241_x_at) / RFU C5orf56 (11738088_a_at) / Fold change /veh C5orf56 (11738088_a_at) / RFU OLFML3 (11715873_a_at) / Fold change /veh OLFML3 (11715873_a_at) / RFU LOC100653217 /// NTM (11731650_a_at) / Fold change /veh LOC100653217 /// NTM (11731650_a_at) / RFU MAPK11 (11762145_a_at) / Fold change /veh MAPK11 (11762145_a_at) / RFU FIZ1 (11724087_x_at) / Fold change /veh FIZ1 (11724087_x_at) / RFU OASL (11726364_x_at) / Fold change /veh OASL (11726364_x_at) / RFU SOX15 (11748057_x_at) / Fold change /veh SOX15 (11748057_x_at) / RFU CD79A (11719716_a_at) / Fold change /veh CD79A (11719716_a_at) / RFU HIST1H1D (11736915_at) / Fold change /veh HIST1H1D (11736915_at) / RFU CASKIN2 (11723855_a_at) / Fold change /veh CASKIN2 (11723855_a_at) / RFU LOC730098 (11760151_x_at) / Fold change /veh LOC730098 (11760151_x_at) / RFU OR4N2 (11742367_at) / Fold change /veh OR4N2 (11742367_at) / RFU PRRT2 (11749266_a_at) / Fold change /veh PRRT2 (11749266_a_at) / RFU SNX32 (11753110_a_at) / Fold change /veh SNX32 (11753110_a_at) / RFU CDHR5 (11726645_a_at) / Fold change /veh CDHR5 (11726645_a_at) / RFU RCAN1 (11760418_a_at) / Fold change /veh RCAN1 (11760418_a_at) / RFU FAM167A (11723789_a_at) / Fold change /veh FAM167A (11723789_a_at) / RFU FAM26E (11764081_at) / Fold change /veh FAM26E (11764081_at) / RFU ISYNA1 (11749810_s_at) / Fold change /veh ISYNA1 (11749810_s_at) / RFU ACY1 (11761880_at) / Fold change /veh ACY1 (11761880_at) / RFU 11764098_at / Fold change /veh 11764098_at / RFU SAMD14 (11745864_x_at) / Fold change /veh SAMD14 (11745864_x_at) / RFU NPB (11741838_a_at) / Fold change /veh NPB (11741838_a_at) / RFU TMPRSS6 (11731388_a_at) / Fold change /veh TMPRSS6 (11731388_a_at) / RFU KRTAP10-2 (11738614_at) / Fold change /veh KRTAP10-2 (11738614_at) / RFU ARHGAP8 /// PRR5-ARHGAP8 (11727945_x_at) / Fold change /veh ARHGAP8 /// PRR5-ARHGAP8 (11727945_x_at) / RFU KRTAP5-7 /// NADSYN1 (11734609_at) / Fold change /veh KRTAP5-7 /// NADSYN1 (11734609_at) / RFU RASL12 (11751679_a_at) / Fold change /veh RASL12 (11751679_a_at) / RFU CDKN2B (11736163_a_at) / Fold change /veh CDKN2B (11736163_a_at) / RFU PRF1 (11729649_at) / Fold change /veh PRF1 (11729649_at) / RFU, ZNF638 /// ZNF638-IT1 / Fold change vs veh, ZNF638 /// ZNF638-IT1 / RFU, PANK3 / Fold change vs veh, PANK3 / RFU, SH3YL1 / Fold change vs veh, SH3YL1 / RFU, ZEB2 / Fold change vs veh, ZEB2 / RFU, NRIP1 / Fold change vs veh, NRIP1 / RFU, PTTG1IP / Fold change vs veh, PTTG1IP / RFU, CAPN2 / Fold change vs veh, CAPN2 / RFU, MED14 / Fold change vs veh, MED14 / RFU, SNORA58 / Fold change vs veh, SNORA58 / RFU, C1orf63 / Fold change vs veh, C1orf63 / RFU, LRRFIP1 / Fold change vs veh, LRRFIP1 / RFU, NDUFAF7 / Fold change vs veh, NDUFAF7 / RFU, SLC12A2 / Fold change vs veh, SLC12A2 / RFU, IBTK / Fold change vs veh, IBTK / RFU, ESF1 / Fold change vs veh, ESF1 / Fold change vs veh, TMEM50B / RFU, TAOK1 / Fold change vs veh, TAOK1 / RFU, ACBD3 / Fold change vs veh, ACBD3 / RFU, TMA16 / Fold change vs veh, TMA16 / RFU, RWDD3 / Fold change vs veh, RWDD3 / RFU, BCAT1 / Fold change vs veh, BCAT1 / RFU, EDEM3 / Fold change vs veh, EDEM3 / RFU, TMEM33 / Fold change vs veh, TMEM33 / RFU, WDR75 / Fold change vs veh, WDR75 / RFU, AHCTF1 / Fold change vs veh, AHCTF1 / RFU, TFRC / Fold change vs veh, TFRC / RFU, ZDHHC17 / Fold change vs veh, ZDHHC17 / RFU, NOM1 / Fold change vs veh, NOM1 / RFU, ARL8B / Fold change vs veh, ARL8B / RFU, ZBTB11 / Fold change vs veh, ZBTB11 / RFU, TAMM41 / Fold change vs veh, TAMM41 / RFU, KIAA1704 /// LOC100996395 / Fold change vs veh, KIAA1704 /// LOC100996395 / RFU, ING1 / Fold change vs veh, ING1 / RFU, TRMT61B / Fold change vs veh, TRMT61B / RFU, FUBP3 / Fold change vs veh, FUBP3 / RFU, TP53 / Fold change vs veh, TP53 / RFU, TNKS2 / Fold change vs veh, TNKS2 / RFU, ZFP14 / Fold change vs veh, ZFP14 / RFU, ACTR2 / Fold change vs veh, ACTR2 / RFU, PPP3R1 / Fold change vs veh, PPP3R1 / RFU, PIK3R1 / Fold change vs veh, PIK3R1 / RFU, HNRNPA1 / Fold change vs veh, HNRNPA1 / RFU, RNF170 / Fold change vs veh, RNF170 / RFU, ZNF28 / Fold change vs veh, ZNF28 / RFU, RNGTT / Fold change vs veh, RNGTT / RFU, OGT / Fold change vs veh, OGT / RFU, BRD1 / Fold change vs veh, BRD1 / RFU, MARS / Fold change vs veh, MARS / RFU, ZNF655 / Fold change vs veh, ZNF655 / RFU, FAHD1 / Fold change vs veh, FAHD1 / RFU, BDP1 / Fold change vs veh, BDP1 / RFU, LRRCC1 / Fold change vs veh, LRRCC1 / RFU, ARID1A / Fold change vs veh, ARID1A / RFU, ZNF146 / Fold change vs veh, ZNF146 / RFU, ZNF330 / Fold change vs veh, ZNF330 / RFU, GPN3 / Fold change vs veh, GPN3 / RFU, C9orf123 / Fold change vs veh, C9orf123 / RFU, N4BP2L2 / Fold change vs veh, N4BP2L2 / RFU, ARFIP1 / Fold change vs veh, ARFIP1 / RFU, FAM179B / Fold change vs veh, FAM179B / RFU, BCL10 / Fold change vs veh, BCL10 / RFU, UHRF1BP1L / Fold change vs veh, UHRF1BP1L / RFU, BET1 / Fold change vs veh, BET1 / RFU, CNOT2 / Fold change vs veh, CNOT2 / RFU, ZNF268 / Fold change vs veh, ZNF268 / Fold change vs veh, ZNF507 / RFU, DGCR2 / Fold change vs veh, DGCR2 / RFU, WDSUB1 / Fold change vs veh, WDSUB1 / Fold change vs veh, HSP90B1 /// MIR3652 / RFU, ADSS / Fold change vs veh, ADSS / RFU, GK / Fold change vs veh, GK / RFU, ZNF148 / Fold change vs veh, ZNF148 / RFU, TAF9 / Fold change vs veh, TAF9 / RFU, SLC1A5 / Fold change vs veh, SLC1A5 / RFU, SLMO2 / Fold change vs veh, SLMO2 / RFU, ABCC4 / Fold change vs veh, ABCC4 / RFU, LOC101060439 /// RAP1B / Fold change vs veh, LOC101060439 /// RAP1B / RFU, RFX7 / Fold change vs veh, RFX7 / RFU, GTPBP10 / Fold change vs veh, GTPBP10 / RFU, CNEP1R1 / Fold change vs veh, CNEP1R1 / RFU, BIVM-ERCC5 /// ERCC5 / Fold change vs veh, BIVM-ERCC5 /// ERCC5 / RFU, ILF3 / Fold change vs veh, ILF3 / RFU 11762660_at / Fold change /veh 11762660_at / RFU VCAN (11757783_s_at) / Fold change /veh VCAN (11757783_s_at) / RFU DDX43 (11728927_at) / Fold change /veh DDX43 (11728927_at) / RFU KRT8 (11758188_x_at) / Fold change /veh KRT8 (11758188_x_at) / RFU NKD1 (11759106_at) / Fold change /veh NKD1 (11759106_at) / RFU SRD5A1 (11742802_a_at) / Fold change /veh SRD5A1 (11742802_a_at) / RFU TPSAB1 /// TPSB2 (11721975_s_at) / Fold change /veh TPSAB1 /// TPSB2 (11721975_s_at) / RFU GSTM3 (11746129_a_at) / Fold change /veh GSTM3 (11746129_a_at) / RFU IL23R (11737362_x_at) / Fold change /veh IL23R (11737362_x_at) / RFU TMEM51 (11727254_a_at) / Fold change /veh TMEM51 (11727254_a_at) / RFU PIWIL2 (11732686_x_at) / Fold change /veh PIWIL2 (11732686_x_at) / RFU ORM1 (11744905_x_at) / Fold change /veh ORM1 (11744905_x_at) / RFU CCDC152 (11743942_at) / Fold change /veh CCDC152 (11743942_at) / RFU ECM1 (11717891_a_at) / Fold change /veh ECM1 (11717891_a_at) / RFU IL23R (11748794_a_at) / Fold change /veh IL23R (11748794_a_at) / RFU TNFAIP8L3 (11732012_x_at) / Fold change /veh TNFAIP8L3 (11732012_x_at) / RFU MBOAT4 (11741988_at) / Fold change /veh MBOAT4 (11741988_at) / RFU 11764193_at / Fold change /veh 11764193_at / RFU TMEM53 (11763286_at) / Fold change /veh TMEM53 (11763286_at) / RFU MAGEB2 (11727129_at) / Fold change /veh MAGEB2 (11727129_at) / RFU TMEM200A (11744735_a_at) / Fold change /veh TMEM200A (11744735_a_at) / RFU CCDC152 (11751479_a_at) / Fold change /veh CCDC152 (11751479_a_at) / RFU FAM211A (11726209_a_at) / Fold change /veh FAM211A (11726209_a_at) / RFU RGS16 (11746705_a_at) / Fold change /veh RGS16 (11746705_a_at) / RFU VCAN (11755009_s_at) / Fold change /veh VCAN (11755009_s_at) / RFU RHOB (11743442_s_at) / Fold change /veh RHOB (11743442_s_at) / RFU RGS16 (11720943_a_at) / Fold change /veh RGS16 (11720943_a_at) / RFU RGS16 (11720944_at) / Fold change /veh RGS16 (11720944_at) / RFU, VPS4B / Fold change vs veh, VPS4B / RFU, CREB1 / Fold change vs veh, CREB1 / RFU, DNAJC13 / Fold change vs veh, DNAJC13 / RFU, GNAQ / Fold change vs veh, GNAQ / RFU, CDK5R1 / Fold change vs veh, CDK5R1 / RFU, ZRANB3 / Fold change vs veh, ZRANB3 / RFU, CUL4A / Fold change vs veh, CUL4A / RFU, CCNY / Fold change vs veh, CCNY / RFU, UFL1 / Fold change vs veh, UFL1 / RFU, COG3 / Fold change vs veh, COG3 / RFU, DIAPH2 / Fold change vs veh, DIAPH2 / RFU, SKA2 / Fold change vs veh, SKA2 / RFU, AFF3 / Fold change vs veh, AFF3 / RFU, LMF1 / Fold change vs veh, LMF1 / RFU, IPO11 / Fold change vs veh, IPO11 / RFU, DFFB / Fold change vs veh, DFFB / RFU, FOXP1 / Fold change vs veh, FOXP1 / RFU, CARD8 / Fold change vs veh, CARD8 / RFU, STRN3 / Fold change vs veh, STRN3 / RFU, ADK / Fold change vs veh, ADK / RFU, RASSF2 / Fold change vs veh, RASSF2 / RFU, WIPF1 / Fold change vs veh, WIPF1 / RFU, LARP1B / Fold change vs veh, LARP1B / RFU, RASA1 / Fold change vs veh, RASA1 / RFU, RB1 / Fold change vs veh, RB1 / RFU, PPFIA1 / Fold change vs veh, PPFIA1 / RFU, MAT2A / Fold change vs veh, MAT2A / RFU, CCT5 / Fold change vs veh, CCT5 / RFU, WDR92 / Fold change vs veh, WDR92 / RFU, CUX1 / Fold change vs veh, CUX1 / RFU, TTC7A / Fold change vs veh, TTC7A / RFU, TMEM135 / Fold change vs veh, TMEM135 / RFU, DEPTOR / Fold change vs veh, DEPTOR / RFU, CPM / Fold change vs veh, CPM / RFU, DNAJB6 / Fold change vs veh, DNAJB6 / RFU, CACNA2D3 / Fold change vs veh, CACNA2D3 / RFU, DTX4 / Fold change vs veh, DTX4 / RFU, TFCP2 / Fold change vs veh, TFCP2 / RFU, GMCL1 /// GMCL1P1 / Fold change vs veh, GMCL1 /// GMCL1P1 / RFU, AEBP2 / Fold change vs veh, AEBP2 / RFU, SNHG1 /// SNORD22 /// SNORD25 /// SNORD26 /// SNORD27 /// SNORD28 /// SNORD29 /// SNORD31 / Fold change vs veh, SNHG1 /// SNORD22 /// SNORD25 /// SNORD26 /// SNORD27 /// SNORD28 /// SNORD29 /// SNORD31 / Fold change (Aza/veh), C12orf56 (ProbeSet 11735607_a_at) / Fold change (ACY-1035/veh), C12orf56 (ProbeSet 11735607_a_at) / Fold change (Aza/veh), FGFR1OP (ProbeSet 11751329_s_at) / Fold change (ACY-1035/veh), FGFR1OP (ProbeSet 11751329_s_at) / Fold change (Aza/veh), VPS36 (ProbeSet 11739960_a_at) / Fold change (ACY-1035/veh), VPS36 (ProbeSet 11739960_a_at) / RFU SYPL1 (11715823_x_at) / Fold change /veh SYPL1 (11715823_x_at) / RFU IGFBP7 (11715501_s_at) / Fold change /veh IGFBP7 (11715501_s_at) / RFU REEP3 (11722064_at) / Fold change /veh REEP3 (11722064_at) / RFU IGLL1 (11728026_x_at) / Fold change /veh IGLL1 (11728026_x_at): dose or concentration left out as unconfirmed
Details: MV-4-11 cells, 48 hours

Compound: Nc1ccc(-c2cccs2)cc1NC(=O)c1ccc2c(c1)cc(C1CC1)n2CCN1CCOCC1 [ACY-1035]
- Fold change /veh CCDC152 (11751479_a_at): 1.05
